Entries after “also recorded” stand apart in the source; their conditions may differ.
System: U-937 blood cancer cell line
Test: MTT in vitro cytotoxicity assay
Type: cell-based
Conditions: U-937, MTT assay
Experimental: For cytotoxicity assays, the anti-cancer compounds were prepared as a stock solution, to suit a universal 96 well plate map, at different concentrations in μM, and dissolved in DMSO dH2O. Working solutions were prepared in the culture medium and added to the wells 24 hours after seeding of 5 to 7×10^3 cells per well in 200 μL of fresh culture medium. DMSO (1%)/dH2O was used as the solvent control. The DMSO concentration was maintained at a concentration less than 1% (i.e., a non-toxic concentration). Microscopic cytological changes were monitored and photographed following exposure to different concentrations of the compounds for 24 and 48 hours using an inverted microscope. After the respective periods of treatment, plates were centrifuged and washed with fresh growth medium. Then, 20 μL of MTT solution [5 mg/mL in phosphate-buffered saline (PBS)] was added to each well, and the plates were wrapped with aluminum foil and incubated overnight at 37° C. The plates were centrifuged and the supernatants were removed carefully […]. The purple formazan product was dissolved in 100 μL of 100% DMSO. The absorbance was monitored at 570 nm (measurement) and 630 nm (reference) using a 96 well plate reader. Data were collected for four replicates each and used to calculate the median effect dose or concentration; i.e., IC50. […]

Substance | cytotoxicity (in words) (24 and 48 hours) | IC50 (24 hour incubation time, read-out: IC50 = concentration of drug required to inhibit growth of 50% of the cancer cells) [µM]
5′-benzyl-4′-(p-tolyl)-5-(trifluoromethoxy)spiro[3,2′]oxindolopyrrolidino-4′-(methylphenyl)-1″-styryl-5-benzylidene-spiro[3′.3″]piperidi-4″-one [Compound 4i] | most cytotoxic compound; also recorded: excellent cytotoxicity effects at the lowest concentrations | 
bleomycin [reference compound] |  | 16.2 ± 4.5

Reference: patent US9486444B1, “Anti-cancer compound” (KING SAUD UNIVERSITY, priority 2016, dated 2016)
